Reference: PMC6095608 (PLoS ONE, 2018)
pIC50: −log10 of the molar value.

What was measured:
[1] = system: OCT2 and MATE1; assay: Transcellular transport assay across doubly transfected MDCK-OCT2-MATE1 monolayers; assay type: cell-based, human; conditions: 10 μM efavirenz, 2 h
Protocol: Transport experiments employing polarized monolayers of MDCK-OCT1, MDCK-OCT2, or MDCK-MATE1 cell lines as well as doubly transfected MDCK-OCT1-MATE1 or MDCK-OCT2-MATE1 lines and the non-transfected parental control MDCK-Co cells grown on Transwell 3402 cell culture inserts (3.0 μm pore size, 24 mm diameter; Costar, Corning, NY) were performed as described previously. The number of cells per well was 0.5 x 10^6 in all experiments, and the cells were incubated for 3 days to confluence in standard cultivation medium MEM (Gibco) + 10% FBS. After 3 days’ cultivation, medium was removed from both sides and the cells of the monolayer were washed using pre-warmed PBS. […] The pH of the medium on the basolateral side was 7.4, while that on the apical side was set to 6.0 (adjusted by adding HCl or NaOH, when necessary) to ensure optimal MATE1 transport activity. Cells were incubated at 37°C in 5% CO2 for 2 hours. At the end of the incubation period, 50 μl aliquots were sampled and the rest of the medium was immediately removed. The cells were then washed twice with ice-cold PBS, the membranes supporting cellular monolayers were excised, and the cells were dissolved in a 0.02% SDS solution. The radioactivity of the collected samples and lysed monolayers was measured by liquid scintillation counting (Tri-Carb 2910 TR Perkin Elmer), and the protein concentration of the cell lysates was quantified using the BCA protein assay. Transport rates were recorded in pmol per mg protein in the cellular monolayer.

[2] = system: BCRP; parameters: method as in PMID 17202245; conditions: only at 50 μM; cited from earlier work
[3] = system: MDCK-Co cells; assay: Transcellular transport assay across control MDCK-Co monolayers; assay type: cell-based, canine; conditions: 10 μM efavirenz, 2 nM MPP+, 2 h
Protocol: Transport experiments employing polarized monolayers of MDCK-OCT1, MDCK-OCT2, or MDCK-MATE1 cell lines as well as doubly transfected MDCK-OCT1-MATE1 or MDCK-OCT2-MATE1 lines and the non-transfected parental control MDCK-Co cells grown on Transwell 3402 cell culture inserts (3.0 μm pore size, 24 mm diameter; Costar, Corning, NY) were performed as described previously. The number of cells per well was 0.5 x 10^6 in all experiments, and the cells were incubated for 3 days to confluence in standard cultivation medium MEM (Gibco) + 10% FBS. After 3 days’ cultivation, medium was removed from both sides and the cells of the monolayer were washed using pre-warmed PBS. Experiments were initiated by adding HBSS buffer containing 10 mM HEPES (pH 7.4) or 10 mM MES (pH 6.0) with or without [^3H]-lamivudine (10 nM) or [^3H]-MPP^+ (2 nM) to either the apical or basolateral compartment. The pH of the medium on the basolateral side was 7.4, while that on the apical side was set to 6.0 (adjusted by adding HCl or NaOH, when necessary) to ensure optimal MATE1 transport activity. Cells were incubated at 37°C in 5% CO2 for 2 hours. At the end of the incubation period, 50 μl aliquots were sampled and the rest of the medium was immediately removed. […] Transport rates were recorded in pmol per mg protein in the cellular monolayer.

[4] = target: T1, OCT1 (Homo sapiens, UniProt O15245); assay: Inhibition of net [14C]-metformin uptake in MDCK-OCT1 cells; assay type: cell-based; conditions: 50 μM metformin, 5 min, pH 7.4, efavirenz 0.01–50 μM, read-out: IC50, inhibition of net OCT1-mediated [14C]-metformin uptake
T1 construct: expressed in transfected cells; host or cells: MDCKII (MDCK-OCT1)
T1 sequence (O15245 1-554): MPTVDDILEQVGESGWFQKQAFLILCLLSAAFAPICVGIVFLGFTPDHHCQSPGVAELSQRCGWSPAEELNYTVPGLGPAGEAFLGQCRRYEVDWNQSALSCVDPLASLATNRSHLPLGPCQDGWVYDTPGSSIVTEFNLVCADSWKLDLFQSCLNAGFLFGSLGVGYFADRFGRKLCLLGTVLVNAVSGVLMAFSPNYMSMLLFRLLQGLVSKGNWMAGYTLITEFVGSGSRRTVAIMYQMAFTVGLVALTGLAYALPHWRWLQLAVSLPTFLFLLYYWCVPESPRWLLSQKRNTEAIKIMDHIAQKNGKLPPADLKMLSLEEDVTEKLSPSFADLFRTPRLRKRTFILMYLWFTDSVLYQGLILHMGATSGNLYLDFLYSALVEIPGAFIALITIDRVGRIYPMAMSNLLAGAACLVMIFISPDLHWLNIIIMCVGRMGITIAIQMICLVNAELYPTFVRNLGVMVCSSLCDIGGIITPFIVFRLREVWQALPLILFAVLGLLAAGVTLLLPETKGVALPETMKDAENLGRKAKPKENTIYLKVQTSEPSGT
Protocol: The singly-transfected OCT1, OCT2, MATE1 or control MDCK cells were seeded on 12-well plates at a density of 0.5 x 10^6 cells per well and cultivated in standard cultivation medium MEM (Gibco) + 10% FBS. Forty-eight hours after seeding, uptake experiments with radiolabelled metformin were performed. Cells were washed with 500 μl pre-warmed HBSS buffer of pH 7.4 (for OCTs) or 8.0 (for MATE1). Solutions of [^14C]-metformin (50 μM) in HBSS buffer of pH 7.4 or 8.0 with or without efavirenz were then added, and the resulting mixtures were left to stand for an accumulation period of 5 minutes. […] After the accumulation period, the solutions were aspirated and the cells were washed three times with 500 μl ice-cold HBSS buffer of pH 7.4 or 8.0 before being lysed with 0.02% sodium dodecyl sulphate (SDS). The intracellular accumulation of radioactivity was detected using a liquid scintillation counter (Tri-Carb 2910 TR Perkin Elmer), and protein concentrations in the cell lysates were measured by the BCA protein assay. Net transporter-mediated uptake was obtained by subtracting the accumulation of metformin in vector control cells from that in drug transporter-overexpressing cells.
A p value of ≤ 0.05 was considered statistically significant. […]

[5] = system: MRP transporters; parameters: method as in PMID 17172311; conditions: only at 50 μM; cited from earlier work
[6] = system: human OCT2; parameters: method as in PMID 18490433; conditions: 5 μM efavirenz, 1 min incubation; cited from earlier work
[7] = cited from earlier work

In the case of `O=C1Nc2ccc(Cl)cc2[C@@](C#CC2CC2)(C(F)(F)F)O1` [efavirenz, Efavirenz], the “Effect on basolateral-to-apical transport of [3H]-MPP+” value ([1]; 2 nM MPP+, MDCK-OCT2-MATE1) was “Inhibition”, the “Effect on intracellular accumulation of [3H]-MPP+” value ([1]; 2 nM MPP+, MDCK-OCT2-MATE1 monolayers) was “unaffected” and the “Effect on intracellular accumulation of [3H]-lamivudine” value ([1]; 10 nM lamivudine, OCT2-MATE1 cells) was “remained unaffected”. The “Effect on transcellular transport of [3H]-lamivudine” value ([1]; 10 nM lamivudine, basal to apical, MDCK-OCT2-MATE1) was “significantly inhibited”, the “Inhibition of BCRP” value [2] was “inhibit” and the “Effect on basolateral-to-apical transport of [3H]-MPP+” value [3] was “no inhibitory effect”. For the same molecule, the pIC50 [4] was 5.64, the “Inhibition of MRP transporters” value [5] was “inhibit” and the “Inhibitory effect on OCT2 with MPP+ as substrate” value [6] was “did not detect any inhibitory effect”. For the same molecule, the “Efavirenz concentration in the plasma seen in humans (median)” value ([7]; humans) was 6.9 µM, the “Efavirenz concentration in the plasma seen in humans (range)” value ([7]; humans) was 0.4 to 48 µM and the “Average plasma concentration (cp) of efavirenz” value ([7]; therapeutically, responding HIV-positive patients) was ~ 8.7 μM.
